# Assay results from patent publication US20260042764A1, “COMPOSITIONS AND METHODS FOR INHIBITION OF KRAS” (TheRas, Inc., priority 2022, published 2026).
# Experiments:
# [1] = target: T1, Avi-KRAS G12D (1-169) GppNHp/RAF1 RBD-3xFLAG (52-151) (Homo sapiens, UniProt P01116, G12D); test: Raf1-KRAS G12D-GppNHP disruption HTRF assay (Biological Example 1); format: binding
# T1 construct: Avi-KRAS G12D (1-169)
# In short: (§1)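 HTRF PPI disruption; buffer 50 mM Tris pH 7.5, 100 mM NaCl, 5 mM MgCl2, 0.1% BSA, 0.01% Tween, 10% DMSO. Protein mix 1 h RT shaking, reagent mix 1 h RT shaking. Data as % activity vs DMSO (100%).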
# [2] = target: T2, Avi-KRAS G12R (1-169) GppNHp/RAF1 RBD-3xFLAG (52-151) (Homo sapiens, UniProt P01116, G12R); test: Raf1-KRAS G12R-GppNHP disruption HTRF assay (Biological Example 1); format: binding
# T2 construct: Avi-KRAS G12R (1-169)
# In short: as §1
# [3] = target: T3, Avi-KRAS G12V (1-169) GppNHp/RAF1 RBD-3xFLAG (52-151) (Homo sapiens, UniProt P01116, G12V); test: Raf1-KRAS G12V-GppNHP disruption HTRF assay (Biological Example 1); format: binding
# T3 construct: Avi-KRAS G12V (1-169)
# In short: as §1
# [4] = target: T4, Avi-KRAS WT (1-169) GppNHp/RAF1 RBD-3xFLAG (52-151) (Homo sapiens, UniProt P01116); test: Raf1-KRAS WT-GppNHP disruption HTRF assay (Biological Example 1); format: binding
# T4 construct: Avi-KRAS WT (1-169)
# In short: as §1
# [5] = test system: GP2d cells (KRAS G12D); test: Cell-based pERK HTRF assay in GP2d cell (Biological Example 2); conditions: GP2d, GP2d (KRAS G12D) cells, pERK HTRF
# In short: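 Cells grown in DMEM with 10% FBS were exposed to compound for 60 min at 0.25% DMSO, using a 9-point half-log series starting at 1 μM or 100 nM. Lysates were then mixed with d2 and Eu cryptate antibodies for 4–24 h at room temperature, and pERK was read by HTRF.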
# [6] = test system: SW620 cells (KRAS G12V); test: Cell-based pERK HTRF assay in SW620 cell (Biological Example 4); conditions: Homo sapiens, SW-620, SW620 (KRAS G12V) cells, pERK HTRF
# In short: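 In SW620 cells grown in RPMI with 10% FBS, a 4 h compound treatment (0.25% DMSO, 9-point curve from 1 μM) preceded lysis. Phospho-ERK levels were then read by time-resolved FRET at 615 nm emission.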
# [7] = KRAS G12D, GppNHp-loaded, class symbols
# [8] = KRAS G12R, GppNHp-loaded, class symbols
# [9] = KRAS G12V, GppNHp-loaded, class symbols
# [10] = KRAS WT, GppNHp-loaded, class symbols
# [11] = KRAS G12D, GppNHp-loaded, Table 11
# [12] = KRAS G12R, GppNHp-loaded, Table 11
# [13] = KRAS G12V, GppNHp-loaded, Table 11
# [14] = KRAS WT, GppNHp-loaded, Table 11
# T4 sequence (P01116 1-169 isoform P01116-2): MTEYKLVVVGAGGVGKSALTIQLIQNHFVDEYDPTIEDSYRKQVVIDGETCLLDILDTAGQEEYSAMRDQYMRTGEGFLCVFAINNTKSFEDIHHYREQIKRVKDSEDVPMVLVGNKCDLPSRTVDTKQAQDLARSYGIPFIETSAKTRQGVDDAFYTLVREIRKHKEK
# T3 sequence (P01116 1-169 isoform P01116-2 G12V): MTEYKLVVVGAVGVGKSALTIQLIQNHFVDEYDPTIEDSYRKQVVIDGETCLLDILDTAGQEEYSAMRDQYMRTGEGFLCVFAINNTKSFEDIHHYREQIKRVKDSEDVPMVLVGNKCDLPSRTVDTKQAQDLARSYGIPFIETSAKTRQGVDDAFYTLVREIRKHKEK
# T2 sequence (P01116 1-169 isoform P01116-2 G12R): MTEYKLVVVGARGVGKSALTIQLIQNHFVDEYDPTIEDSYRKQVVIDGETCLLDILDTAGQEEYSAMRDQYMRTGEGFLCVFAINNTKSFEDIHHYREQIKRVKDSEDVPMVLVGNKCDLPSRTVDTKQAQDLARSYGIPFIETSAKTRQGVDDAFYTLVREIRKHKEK
# T1 sequence (P01116 1-169 isoform P01116-2 G12D): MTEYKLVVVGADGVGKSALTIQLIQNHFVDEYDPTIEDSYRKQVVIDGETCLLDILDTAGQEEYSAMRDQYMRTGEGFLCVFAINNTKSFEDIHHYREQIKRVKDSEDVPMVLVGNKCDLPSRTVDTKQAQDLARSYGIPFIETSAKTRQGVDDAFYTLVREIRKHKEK
"IC50 [1, 7]","IC50 [2, 8]","IC50 [3, 9]","IC50 [4, 10]",IC50 ([5]; class symbols),IC50 ([6]; class symbols),"IC50 [1, 11]","IC50 [2, 12]","IC50 [3, 13]","IC50 [4, 14]",IC50 [5],IC50 [6],IC50 ([1]; KRAS G12D-GppNHp/RAF1 RBD HTRF),IC50 ([2]; KRAS G12R-GppNHp/RAF1 RBD HTRF),IC50 ([3]; KRAS G12V-GppNHp/RAF1 RBD HTRF),IC50 ([4]; KRAS WT-GppNHp/RAF1 RBD HTRF),SMILES
100 to 1000 nM,100 to 1000 nM,100 to 1000 nM,1000 to 10000 nM,< 100 nM,< 100 nM,–,–,–,–,–,–,–,–,–,–,Cc1c(C(=O)N2CCC2)nn2c1CN(c1nc(OCC34CCCN3CC(F)C4)nc3c(F)c(-c4ccc(F)c5sc(N)c(C#N)c45)c(C(F)(F)F)cc13)CC2 (stereo not drawn) [Compound 742]
< 100 nM,< 100 nM,< 100 nM,< 100 nM,< 100 nM,< 100 nM,–,–,–,–,–,–,–,–,–,–,"CCN(c1nc(OC[C@@]23CCCN2C[C@H](F)C3)nc2c(F)c(-c3ccc(F)c4sc(N)c(C#N)c34)c(C(F)(F)F)cc12)[C@H]1CCN(C(=O)N(C)C2CC2)C1 (atropisomer, axis not shown) [Compound 583]"
< 100 nM,< 100 nM,< 100 nM,< 100 nM,< 100 nM,< 100 nM,–,–,–,–,–,–,–,–,–,–,CCN(c1nc(OC[C@@]23CCCN2C[C@H](F)C3)nc2c(F)c(-c3ccc(F)c4sc(N)c(C#N)c34)c(C(F)(F)F)cc12)[C@H]1CCN(C(=O)C2C[C@@H]2C)C1 (stereo partly drawn) [Compound 604]
< 100 nM,< 100 nM,< 100 nM,< 100 nM,< 100 nM,< 100 nM,–,–,–,–,–,–,–,–,–,–,"CCN(c1nc(OC[C@@]23CCCN2C[C@H](F)C3)nc2c(F)c(-c3ccc(F)c4sc(N)c(C#N)c34)c(C(F)(F)F)cc12)[C@H]1CCN(C(=O)N2CC(C#N)C2)C1 (atropisomer, axis not shown) [Compound 778]"
< 100 nM,< 100 nM,< 100 nM,< 100 nM,< 100 nM,< 100 nM,–,–,–,–,–,–,–,–,–,–,"CCN(c1nc(OC[C@@]23CCCN2C[C@H](F)C3)nc2c(F)c(-c3ccc(F)c4sc(N)c(C#N)c34)c(C(F)(F)F)cc12)[C@H]1CCN(C(=O)c2cnn(C)c2)C1 (atropisomer, axis not shown) [Compound 748]"
< 100 nM,< 100 nM,< 100 nM,< 100 nM,< 100 nM,< 100 nM,–,–,–,–,–,–,–,–,–,–,"CCN(c1nc(OC[C@@]23CCCN2C[C@H](F)C3)nc2c(F)c(-c3ccc(F)c4sc(N)c(C#N)c34)c(C(F)(F)F)cc12)[C@H]1CCN(C(=O)c2ccsn2)C1 (atropisomer, axis not shown) [Compound 722]"
< 100 nM,< 100 nM,< 100 nM,< 100 nM,< 100 nM,< 100 nM,–,–,–,–,–,–,–,–,–,–,"CCN(c1nc(OC[C@@]23CCCN2C[C@H](F)C3)nc2c(F)c(-c3ccc(F)c4sc(N)c(C#N)c34)c(C(F)(F)F)cc12)[C@H]1CCN(C(=O)N2CC3(CC3)C2)C1 (atropisomer, axis not shown) [Compound 793]"
< 100 nM,< 100 nM,100 to 1000 nM,< 100 nM,< 100 nM,< 100 nM,–,–,–,–,–,–,–,–,–,–,"CCN(c1nc(OC[C@@]23CCCN2C[C@H](F)C3)nc2c(F)c(-c3ccc(F)c4sc(N)c(C#N)c34)c(C(F)(F)F)cc12)[C@H]1C[C@H]2CN(C(C)C)C(=O)N2C1 (atropisomer, axis not shown) [Compound 784]"

# Further lines, the compound ahead of its results:
SMILES,"IC50 [1, 7]","IC50 [2, 8]","IC50 [3, 9]","IC50 [4, 10]",IC50 ([5]; class symbols),IC50 ([6]; class symbols),"IC50 [1, 11]","IC50 [2, 12]","IC50 [3, 13]","IC50 [4, 14]",IC50 [5],IC50 [6],IC50 ([1]; KRAS G12D-GppNHp/RAF1 RBD HTRF),IC50 ([2]; KRAS G12R-GppNHp/RAF1 RBD HTRF),IC50 ([3]; KRAS G12V-GppNHp/RAF1 RBD HTRF),IC50 ([4]; KRAS WT-GppNHp/RAF1 RBD HTRF)
"CC[C@H](C)C(=O)N1CC[C@H](N(CC)c2nc(OC[C@@]34CCCN3C[C@H](F)C4)nc3c(F)c(-c4ccc(F)c5sc(N)c(C#N)c45)c(C(F)(F)F)cc23)C1 (atropisomer, axis not shown) [Compound 576]",< 100 nM,< 100 nM,100 to 1000 nM,< 100 nM,< 100 nM,< 100 nM,–,–,–,–,–,–,–,–,–,–
CNC(=O)CN(C)c1nc(OC[C@@]23CCCN2C[C@H](F)C3)nc2c(F)c(-c3ccc(F)c4sc(N)c(C#N)c34)c(C(F)(F)F)cc12 [Compound 209],–,–,–,–,–,–,100 to 1000 nM,100 to 1000 nM,100 to 1000 nM,100 to 1000 nM,< 100 nM,100 to 1000 nM,–,–,–,–
C[C@@H]1[C@H](N(C)c2nc(OC[C@@]34CCCN3C[C@H](F)C4)nc3c(F)c(-c4ccc(F)c5sc(N)c(C#N)c45)c(Cl)cc23)CCN1C(=O)C(F)F [Compound 408],–,–,–,–,–,–,–,–,–,–,< 100 nM,100 to 1000 nM,100 to 1000 nM,1000 to 10000 nM,1000 to 10000 nM,100 to 1000 nM
CC(=O)N1C[C@H]2OCCN(c3nc(OC[C@@]45CCCN4C[C@H](F)C5)nc4c(F)c(-c5ccc(F)c6sc(N)c(C#N)c56)c(C(F)(F)F)cc34)[C@H]2C1 [Compound 480],–,–,–,–,–,–,–,–,–,–,< 100 nM,< 100 nM,1000 to 10000 nM,1000 to 10000 nM,1000 to 10000 nM,1000 to 10000 nM
N#Cc1c(N)sc2c(F)ccc(-c3c(C(F)(F)F)cc4c(N5C6COCC5CC(O)C6)nc(OC[C@@]56CCCN5C[C@H](F)C6)nc4c3F)c12 (stereo partly drawn) [Compound 374],–,–,–,–,–,–,–,–,–,–,< 100 nM,< 100 nM,100 to 1000 nM,1000 to 10000 nM,1000 to 10000 nM,100 to 1000 nM
"CCN(c1nc(OC[C@@]23CCCN2C[C@H](F)C3)nc2c(F)c(-c3ccc(F)c4sc(N)c(C#N)c34)c(C(F)(F)F)cc12)[C@H]1CCN(C(=O)[C@H](C)OC)C1 (atropisomer, axis not shown) [Compound 571]",< 100 nM,< 100 nM,< 100 nM,< 100 nM,< 100 nM,< 100 nM,–,–,–,–,–,–,–,–,–,–
CN(c1nc(OC[C@@]23CCCN2C[C@H](F)C3)nc2c(F)c(-c3ccc(F)c4sc(N)c(C#N)c34)c(C(F)(F)F)cc12)[C@@H]1CC[C@H](O)C1 [Compound 315],–,–,–,–,–,–,–,–,–,–,< 100 nM,< 100 nM,100 to 1000 nM,1000 to 10000 nM,1000 to 10000 nM,100 to 1000 nM
CCN(c1nc(OC[C@@]23CCCN2C[C@H](F)C3)nc2c(F)c(-c3ccc(F)c4sc(N)c(C#N)c34)c(C(F)(F)F)cc12)[C@H]1CCS(=O)(=O)C1 [Compound 350],–,–,–,–,–,–,–,–,–,–,< 100 nM,< 100 nM,100 to 1000 nM,100 to 1000 nM,100 to 1000 nM,100 to 1000 nM
CN(C)C(=O)[C@H]1CC[C@@H](N(C)c2nc(OC[C@@]34CCCN3C[C@H](F)C4)nc3c(F)c(-c4ccc(F)c5sc(N)c(C#N)c45)c(C(F)(F)F)cc23)C1 [Compound 497],–,–,–,–,–,–,–,–,–,–,< 100 nM,< 100 nM,100 to 1000 nM,1000 to 10000 nM,1000 to 10000 nM,1000 to 10000 nM
N#Cc1c(N)sc2c(F)ccc(-c3c(C(F)(F)F)cc4c(N5CCn6nc(C(=O)N7CC(O)C7)cc6C5)nc(OC[C@@]56CCCN5C[C@H](F)C6)nc4c3F)c12 [Compound 502],–,–,–,–,–,–,–,–,–,–,< 100 nM,100 to 1000 nM,100 to 1000 nM,100 to 1000 nM,100 to 1000 nM,100 to 1000 nM
CN(CC(F)(F)F)c1nc(OC[C@@]23CCCN2C[C@H](F)C3)nc2c(F)c(-c3ccc(F)c4sc(N)c(C#N)c34)c(C(F)(F)F)cc12 [Compound 165],–,–,–,–,–,–,100 to 1000 nM,100 to 1000 nM,100 to 1000 nM,100 to 1000 nM,< 100 nM,< 100 nM,–,–,–,–
N#Cc1c(N)sc2c(F)ccc(-c3c(C(F)(F)F)cc4c(N5CCCCCC5)nc(OC[C@@]56CCCN5C[C@H](F)C6)nc4c3F)c12 [Compound 305],–,–,–,–,–,–,–,–,–,–,< 100 nM,< 100 nM,100 to 1000 nM,100 to 1000 nM,100 to 1000 nM,100 to 1000 nM
N#Cc1c(N)sc2c(F)ccc(-c3c(C(F)(F)F)cc4c(N5CCC[C@H](CO)C5)nc(OC[C@@]56CCCN5C[C@H](F)C6)nc4c3F)c12 [Compound 310],–,–,–,–,–,–,–,–,–,–,< 100 nM,100 to 1000 nM,100 to 1000 nM,100 to 1000 nM,1000 to 10000 nM,100 to 1000 nM
CC(C)C(=O)N1C[C@@H](N(C)c2nc(OC[C@@]34CCCN3C[C@H](F)C4)nc3c(F)c(-c4ccc(F)c5sc(N)c(C#N)c45)c(C(F)(F)F)cc23)C[C@H]1C [Compound 448],–,–,–,–,–,–,–,–,–,–,< 100 nM,100 to 1000 nM,100 to 1000 nM,1000 to 10000 nM,1000 to 10000 nM,100 to 1000 nM
